Experiments:
[1] = test system: leukemic cells; test: Biological activity (destruction of leukemic cells) of Piper betel fractions and HPLC peaks; type: cell-based; details: fractions, zones and HPLC peaks of Piper betel leaf extract
Experimental: Collected material was examined for biological activity i.e. destruction of leukemic cells. […] 10 gm of above-mentioned material was loaded on Sephadex LH-20 column and chromatographed with water, water-methanol (1:1) and methanol as eluent. Three different fractions thus obtained from three different solvent systems were separately checked for biological activity. […] The column was equilibrated with methanol-water-acetic acid (23:76:1), flow rate was maintained at 1.0 ml per min and peaks were identified at 280 nm. According to the retention time (RE) different peaks could be divided into three zones, ZA/ZB and ZC (FIG. 1). ZA had 4 major peaks whereas ZB had very small to moderate 10 peaks and ZC had two distinct peaks. It was convenient to observe biological activity of three zones AA, ZB and ZC, which were separately tested on leukemia cells for destructive activity.

[2] = test system: Promonocytic cell line (U937); test: Incubation of CD33+ promonocytic cell line U937 with CA/PCQ, viable cell count; type: cell-based; details: for % Inhibition of cell growth (After 3 days of incubation): 2×10^5 cells per ml per well
Experimental: Culture of Promonocytic cell line U937. […] This cell line is CD33^+. Incubation of CD33^+ cell line U937 with CA. […] Cells were then washed and counted for viability.

[3] = test system: CML patient's PBMC; test: Incubation of CML patient's PBMC (leukemic cells) with CA/PCQ, viable cell count; type: cell-based, human; details: for % Inhibition of cell growth (After 3 days of incubation): CML patient's leukemic cells, 2×10^5 cells per ml per well
Experimental: Whole blood (10 ml each) was drawn from previously diagnosed myeloid leukemic patients, one patient was diagnosed as AML and the other one was diagnosed as CML. Mononuclear cells were separated by Ficoll/hypaque density gradient centrifugation. […] Cells were then washed and counted for viability.

[4] = test system: Erythroleukemic cell line (K562); test: Incubation of CD33- erythroleukemic cell line K562 with CA/PCQ, viable cell count; type: cell-based; details: for % Inhibition of cell growth (After 3 days of incubation): 2×10^5 cells per ml per well
Excerpt: This cell line was collected from American Type Culture Collection (ATCC), VA, USA. This cell line is […]. […] Cells were then washed and counted for viability.

[5] = test system: Normal PBMC; test: Growth inhibition of normal individuals' PBMC by CA/PCQ; type: cell-based, human; details: Normal individual's PBMC, 3 days, 2×10^5 cells per ml per well
[6] = test system: CD33+ myeloid cells; details: earlier patent filing; cited from earlier work

Which “biological activity i.e. destruction of leukemic cells (in words)” value [1] does the source give for `O=C(C=Cc1ccc(O)cc1)OC1CC(O)(C(=O)O)CC(O)C1O` (stereo not shown) [PCQ, 3-o-p-Coumaryl quinic acid] here?
Its value is “demonstrated considerable activity”.

What about the “% Inhibition of cell growth (After 3 days of incubation)” value (shortened to “% Inhibition of cell growth”) ([2]; U937, 25.0 μg/ml) of the same molecule?
The value was 2.08%.

What about the “% Inhibition of cell growth” value ([2]; U937, 50.0 μg/ml) of the same molecule?
The value was 4.17%.

And the “growth inhibition of leukemic cell lines” value ([2]; U937, 2×10^6/ml/well, 25 μg/ml of PCQ)?
Its value is “up to 2.08%”.

And the “growth inhibition of leukemic cell lines” value ([3]; CML leukemic cells, 2×10^6/ml/well, 25 μg/ml of PCQ)?
The value was “up to 2.38%”.

What about the “% Inhibition of cell growth” value ([3]; 25.0 μg/ml) of the same molecule?
Its value is 2.38%.

And the “% Inhibition of cell growth” value ([3]; 50.0 μg/ml)?
Its value is 4.76%.

And the “% Inhibition of cell growth” value ([4]; K562, 25.0 μg/ml)?
The value was 4.00%.

And the “% Inhibition of cell growth” value ([4]; K562, 50.0 μg/ml)?
The value was 8.00%.

And the “growth inhibition of leukemic cell lines” value ([4]; K562, 2×10^6/ml/well, 25 μg/ml)?
The value was “up to 4%”.

What about the “% Inhibition of cell growth” value ([5]; 25.0 μg/ml) of the same molecule?
Its value is 0.00%.

What about the “% Inhibition of cell growth” value ([5]; 50.0 μg/ml) of the same molecule?
Its value is 1.67%.

And the “CD33+ myeloid cells destruction (in words)” value [6]?
The value was “showed CD33+myeloid cells destruction”.

— US20030229140A1, “Herbal molecule as potential anti-leukemic drug” (priority 2002, published 2003)
